Structures can show the parent of a compound that is named as a salt. Where two headings read alike, the source gives them in different places.
Assays:
Test in all cases: MIC by broth microdilution (CLSI)
Assay type in all cases: cell-based
E. coli HAV#038, ΔTolC = conditions: Escherichia coli, 24 h, read-out: MIC E. coli HAV#038, ΔTolC
Summary of the method: (§1)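 Strains were grown overnight on blood agar at 35° C, suspended in CaMHB to 0.5 McFarland, then diluted to 5×10^5 CFU/mL. Compounds (64-0.06 μg/mL, 2.5% final DMSO) were tested by CLSI microdilution. Visible growth was scored after 24 h.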

E. coli HAV#040, LptD = conditions: Escherichia coli, 24 h, read-out: MIC E. coli HAV#040, LptD
Summary of the method: as §1

[1] = test system: A. baumannii ATCC 19606 (HAV#010); conditions: Acinetobacter baumannii, ATCC19606, 24 h, read-out: MIC A. baumannii ATCC 19606
Summary of the method: as §1

S. aureus HAV#216, cfr = conditions: Staphylococcus aureus, read-out: MIC S. aureus HAV#216, cfr
Summary of the method: as §1

[2] = test system: E. coli ATCC 25922 (HAV#006); conditions: Escherichia coli, ATCC25922, 24 h, read-out: MIC E. coli ATCC 25922
Summary of the method: as §1

[3] = test system: S. pyogenes HAV#033, c-ermB; conditions: Streptococcus pyogenes, read-out: MIC S. pyogenes HAV#033, c-ermB
Summary of the method: as §1

[4] = test system: E. faecium HAV#318, VRE; clinical; conditions: Enterococcus faecium, read-out: MIC E. faecium HAV#318, VRE
Summary of the method: as §1

[5] = test system: K. oxytoca HAV#450; Clinical; conditions: Klebsiella oxytoca, read-out: MIC K. oxytoca HAV#450
Summary of the method: as §1

[6] = test system: E. faecalis ATCC 29212 (HAV#005); conditions: Enterococcus faecalis, ATCC29212, 24 h, read-out: MIC E. faecalis ATCC 29212
Summary of the method: as §1

[7] = test system: S. aureus HAV#031, c-ermA; conditions: Staphylococcus aureus, read-out: MIC S. aureus HAV#031, c-ermA
Summary of the method: as §1

[8] = test system: S. aureus ATCC 29213 (HAV#001); conditions: Staphylococcus aureus, ATCC29213, 24 h, read-out: MIC S. aureus ATCC 29213
Summary of the method: as §1

[9] = test system: K. pneumoniae HAV#402, FQ-R; conditions: Klebsiella pneumoniae, read-out: MIC K. pneumoniae HAV#402, FQ-R
Summary of the method: as §1

E. coli lptD mutant = conditions: Escherichia coli, 24 h, read-out: MIC E. coli lptD mutant, lptD mutant / ΔlptD mutant; CaMHB, 24 h incubation
Summary of the method: as §1

S. aureus Clinical (cfr) = conditions: Staphylococcus aureus, 24 h, read-out: MIC S. aureus Clinical (cfr)
Summary of the method: as §1

S. pneumoniae c-ermB = conditions: Streptococcus pneumoniae, 24 h, read-out: MIC S. pneumoniae c-ermB
Summary of the method: as §1

S. aureus MMX 3035 = conditions: Staphylococcus aureus, MMX3035, 24 h, read-out: MIC S. aureus MMX 3035
Summary of the method: as §1

E. faecium JMI-990536 = conditions: Enterococcus faecium, JMI990536, 24 h, read-out: MIC E. faecium JMI-990536
Summary of the method: as §1

E. coli ΔtolC = conditions: Escherichia coli, 24 h, read-out: MIC E. coli ΔtolC, ΔtolC; CaMHB, 24 h incubation
Summary of the method: as §1

K. pneumoniae JMI-991193 = conditions: Klebsiella pneumoniae, JMI991193, 24 h, read-out: MIC K. pneumoniae JMI-991193
Summary of the method: as §1

E. coli Clinical (armA) = conditions: Escherichia coli, 24 h, read-out: MIC E. coli Clinical (armA)
Summary of the method: as §1

[10] = HAV#010, ATCC 19606, CaMHB, 24 h incubation
[11] = HAV#006, ATCC 25922, CaMHB, 24 h incubation
[12] = HAV#005, ATCC 29212, CaMHB, 24 h incubation
[13] = HAV#001, ATCC 29213, CaMHB, 24 h incubation
[14] = Clinical (cfr), CaMHB, 24 h incubation
[15] = MMX 3035, CaMHB, 24 h incubation
[16] = JMI-990536, CaMHB, 24 h incubation
[17] = JMI-991193, CaMHB, 24 h incubation

Row | Compound | MIC (E. coli HAV#038, ΔTolC) | MIC (E. coli HAV#040, LptD) | MIC [1, 10] | MIC [2, 11] | MIC [6, 12] | MIC [8, 13] | MIC (E. coli lptD mutant) | MIC (S. pneumoniae c-ermB) | MIC (E. coli ΔtolC) | MIC [1] | MIC [2] | MIC [6] | MIC [8] | MIC ([3]; 24 h) | MIC ([5]; 24 h) | MIC ([7]; 24 h) | MIC ([9]; 24 h) | further results
1 | CC(C)C[C@@H]1CCO[C@@H]2[C@H](CN[C@@H]2C(=O)N[C@H]2C3OC(SCC/C=C/[C@@H]2C)C(O)C(O)C3O)C1 (single isomer, unassigned) [FSA1507068, formate salt] | 0.5 µg/mL | 0.5 µg/mL | 4 µg/mL | 4 µg/mL | 0.125 µg/mL | ≤ 0.06 µg/mL | – | – | – | – | – | – | – | – | – | – | – | MIC (S. aureus HAV#216, cfr; cfr, CaMHB, 24 h incubation): 2 µg/mL; MIC ([3]; c-ermB, CaMHB, 24 h incubation): 0.25 µg/mL; MIC ([4]; CaMHB, 24 h incubation): 0.5 µg/mL; MIC ([5]; CaMHB, 24 h incubation): 8 µg/mL; MIC ([7]; c-ermA, CaMHB, 24 h incubation): 0.5 µg/mL; MIC ([9]; FQ-R, CaMHB, 24 h incubation): 8 µg/mL
2 | CC(C)C[C@@H]1CCO[C@@H]2[C@H](CN[C@@H]2C(=O)N[C@@H]2C/C=C\C[C@@H](CO)S[C@H]3O[C@H]2[C@H](O)[C@H](O)[C@H]3O)C1 [FSA1606034, (4S,5aS,8S,8aR)-4-isobutyl-N-((1R,3S,8R,9R,10R,11S,12R,Z)-10,11,12-trihydroxy-3-(hydroxymethyl)-13-oxa-2-thiabicyclo[7.3.1]tridec-5-en-8-yl) octahydro-2H-oxepino[2,3-c]pyrrole-8-carboxamide hydrochloride salt] | – | – | > 64 µg/mL | 64 µg/mL | 2 µg/mL | 1 µg/mL | 8 µg/mL | 16 µg/mL | 2 µg/mL | – | – | – | – | – | – | – | – | MIC (S. aureus Clinical (cfr); [14]): > 64 µg/mL; MIC (S. aureus MMX 3035; [15]): 64 µg/mL; MIC (E. faecium JMI-990536; [16]): > 64 µg/mL; MIC (K. pneumoniae JMI-991193; [17]): > 64 µg/mL
3 | CC(C)C[C@@H]1CCO[C@@H]2[C@H](CN[C@@H]2C(=O)N[C@H]2[C@H]3O[C@H](S[C@H](c4cn(-c5cccc(Cl)c5)nn4)C/C=C\[C@H]2C)[C@H](O)[C@@H](O)[C@H]3O)C1 [FSA1609015, (4S,5aS,8S,8aR)—N-((1R,3S,7R,8R,9R,10R,11S,12R,Z)-3-(1-(3-chlorophenyl)-1H-1,2,3-triazol-4-yl)-10,11,12-trihydroxy-7-methyl-13-oxa-2-thiabicyclo[7.3.1]tridec-5-en-8-yl)-4-isobutyloctahydro-2H-oxepino[2,3-c]pyrrole-8-carboxamide formate salt] | – | – | – | – | – | – | 2 µg/mL | 0.25 µg/mL | 2 µg/mL | 8 µg/mL | 8 µg/mL | 2 µg/mL | 1 µg/mL | – | – | – | – | MIC (S. aureus Clinical (cfr)): 2 µg/mL; MIC (S. aureus MMX 3035): 2 µg/mL; MIC (E. faecium JMI-990536): 0.5 µg/mL; MIC (K. pneumoniae JMI-991193): 32 µg/mL
4 | CC(C)C[C@@H]1CCO[C@@H]2[C@H](CN[C@@H]2C(=O)N[C@H]2C3OC(SCC/C=C\[C@H]2C)C(O)C(O)C3O)C1 (single isomer, unassigned) [FSA1507066, formate] | 0.125 µg/mL | 0.25 µg/mL | – | – | – | – | – | – | – | 2 µg/mL | 4 µg/mL | ≤ 0.06 µg/mL | ≤ 0.06 µg/mL | 0.125 µg/mL | 4 µg/mL | 0.5 µg/mL | 16 µg/mL | MIC (S. aureus HAV#216, cfr; 24 h): 0.5 µg/mL; MIC ([4]; 24 h): 0.25 µg/mL
5 | CC(C)C[C@@H]1CCO[C@@H]2[C@@H](C1)CN(C)[C@@H]2C(=O)N[C@H]1C2OC(SCC/C=C\[C@H]1C)C(O)C(O)C2O (single isomer, unassigned) [FSA1508001, formate] | 0.25 µg/mL | 0.25 µg/mL | – | – | – | – | – | – | – | 2 µg/mL | 8 µg/mL | 0.125 µg/mL | 0.25 µg/mL | 0.25 µg/mL | 16 µg/mL | 0.5 µg/mL | 64 µg/mL | MIC (S. aureus HAV#216, cfr; 24 h): 1 µg/mL; MIC ([4]; 24 h): 0.25 µg/mL
6 | CC(C)C[C@@H]1CCO[C@@H]2[C@H](CN[C@@H]2C(=O)N[C@@H]2C/C=C\CCS[C@H]3O[C@H]2[C@H](O)[C@H](O)[C@H]3O)C1 [FSA1507013, (4S,5aS,8S,8aR)-4-isobutyl-8-(((1R,8R,9R,10R,11S,12R,Z)-10,11,12-trihydroxy-13-oxa-2-thiabicyclo[7.3.1]tridec-5-en-8-yl)carbamoyl) octahydro-2H-oxepino[2,3-c]pyrrol-7-ium formate] | 0.125 µg/mL | 0.5 µg/mL | – | – | – | – | – | – | – | 2 µg/mL | 2 µg/mL | 0.125 µg/mL | 0.125 µg/mL | 0.5 µg/mL | 2 µg/mL | 4 µg/mL | 8 µg/mL | –
7 | CC(C)C[C@@H]1CCO[C@@H]2[C@H](CN[C@@H]2C(=O)N[C@@H]2C/C=C\C[C@H](CO)S[C@H]3O[C@H]2[C@H](O)[C@H](O)[C@H]3O)C1 [FSA1606033, (4S,5aS,8S,8aR)-4-isobutyl-N-((1R,3R,8R,9R,10R,11S,12R,Z)-10,11,12-trihydroxy-3-(hydroxymethyl)-13-oxa-2-thiabicyclo[7.3.1]tridec-5-en-8-yl) octahydro-2H-oxepino[2,3-c]pyrrole-8-carboxamide hydrochloride salt] | – | – | 64 µg/mL | 16 µg/mL | 1 µg/mL | 1 µg/mL | 4 µg/mL | 4 µg/mL | 1 µg/mL | – | – | – | – | – | – | – | – | MIC (S. aureus Clinical (cfr); [14]): 32 µg/mL; MIC (S. aureus MMX 3035; [15]): 16 µg/mL; MIC (E. faecium JMI-990536; [16]): 16 µg/mL; MIC (K. pneumoniae JMI-991193; [17]): > 64 µg/mL
8 | CC(C)C[C@@H]1CCO[C@@H]2[C@H](CN[C@@H]2C(=O)N[C@@H]2C/C=C\C[C@@H](CN)S[C@H]3O[C@H]2[C@H](O)[C@H](O)[C@H]3O)C1 [FSA1608083, (4S,5aS,8S,8aR)—N-((1R,3S,8R,9R,10R,11S,12R,Z)-3-(aminomethyl)-10,11,12-trihydroxy-13-oxa-2-thiabicyclo[7.3.1]tridec-5-en-8-yl)-4-isobutyloctahydro-2H-oxepino[2,3-c]pyrrole-8-carboxamide hydrochloride salt] | – | – | – | – | – | – | 1 µg/mL | – | 2 µg/mL | – | 16 µg/mL | 1 µg/mL | 1 µg/mL | – | – | – | – | MIC (S. aureus Clinical (cfr)): 32 µg/mL; MIC (S. aureus MMX 3035): 16 µg/mL; MIC (K. pneumoniae JMI-991193): > 64 µg/mL; MIC (E. coli Clinical (armA)): 64 µg/mL

— patent publication US20250270246A1, “LINCOSAMIDES AND USES THEREOF” (President and Fellows of Harvard College, priority 2022, published 2025)
